One may read the inhibition as the percentage by which the read-out fell short of the control. The term IC50 denotes the concentration that gives 50% inhibition.

The target of data set [1] is PI3-kinase p110-delta/p85-alpha (Homo sapiens) (UniProt P27986+O00329). Description: Inhibition of p110delta/p85alpha (unknown origin) at 100 nM incubated for 2 hrs in presence of ATP by ADP-kinaseGlo reagent based assay relative to control. Format: protein-complex assay. A general note: Kinase-Glo reads ATP consumption through a luciferase reaction.
In data set [2] the target is T1, Bromodomain-containing protein 4 (Homo sapiens, UniProt O60885). As to the kind of experiment: Inhibition of His-tagged BRD4-BD1 (unknown origin) at 10 nM incubated for 30 mins by Alphascreen assay relative to control.
Data set [3] deals with PI3-kinase p110-delta/p85-alpha (Homo sapiens, UniProt O00329). As to the kind of experiment: Inhibition of p110delta/p85alpha (unknown origin) incubated for 2 hrs in presence of ATP by ADP-kinaseGlo reagent based assay. Format: protein-complex assay.
Data set [4] addresses T1, Bromodomain-containing protein 4. As to the kind of experiment: Inhibition of His-tagged BRD4-BD1 (unknown origin) incubated for 30 mins in presence of ATP by Alphascreen assay.
Data set [5] concerns SUD4. As to the kind of experiment: Antiproliferative against activity human SU-DHL-4 cells assessed as inhibition of cell growth incubated for 72 hrs by Celltiter-luminescence analysis. Format: functional, cell-based. Particulars: SU-DHL-4, 72 h; call rule not given here.
In data set [6] the test system is SU-DHL-6. Description: Antiproliferative against activity human SU-DHL-6 cells assessed as inhibition of cell growth incubated for 72 hrs by Celltiter-luminescence analysis. Format: functional, cell-based. The following applies: SU-DHL-6, 72 h.
Data set [7] deals with SUD4. As to the kind of experiment: Antiproliferative against activity human SU-DHL-4 cells assessed as inhibition of cell growth incubated for 72 hrs in presence of 10:1 PI-3065:compound by Celltiter-luminescence analysis. Particulars: SU-DHL-4, 72 h. Format: functional, cell-based.
For data set [8], the system named is SU-DHL-6. Description: Antiproliferative against activity human SU-DHL-6 cells assessed as inhibition of cell growth incubated for 72 hrs in presence of 10:1 PI-3065:compound by Celltiter-luminescence analysis. Format: functional, cell-based. The following applies: SU-DHL-6, 72 h.
Data set [9] has as its target Phosphatidylinositol 4,5-bisphosphate 3-kinase catalytic subunit beta isoform (Homo sapiens, UniProt P42338). Description: Inhibition of PI3Kbeta (unknown origin) incubated for 2 hrs in presence of ATP by ADP-kinaseGlo reagent based assay.
Data set [10] has as its target Phosphatidylinositol 4,5-bisphosphate 3-kinase catalytic subunit gamma isoform (Homo sapiens, UniProt P48736). Description: Inhibition of PI3Kgamma (unknown origin) incubated for 2 hrs in presence of ATP by ADP-kinaseGlo reagent based assay.
For data set [11], the target named is Serine/threonine-protein kinase mTOR (Homo sapiens, UniProt P42345). As to the kind of experiment: Inhibition of mTOR (unknown origin) incubated for 2 hrs in presence of ATP by ADP-kinaseGlo reagent based assay.
Data set [12] has as its target Bromodomain-containing protein 2 (Homo sapiens, UniProt P25440). Description: Inhibition of His-tagged BRD2-BD1 (unknown origin) incubated for 30 mins in presence of ATP by Alphascreen assay.
The target in data set [13] is Bromodomain-containing protein 3 (Homo sapiens, UniProt Q15059). As to the kind of experiment: Inhibition of His-tagged BRD3-BD1 (unknown origin) incubated for 30 mins in presence of ATP by Alphascreen assay.
The target in data set [14] is T1, Bromodomain-containing protein 4. As to the kind of experiment: Inhibition of His-tagged BRD4-BD2 (unknown origin) incubated for 30 mins in presence of ATP by Alphascreen assay.
For data set [15], the target named is Bromodomain testis-specific protein (Homo sapiens, UniProt Q58F21). Description: Inhibition of His-tagged BRDT-BD1 (unknown origin) incubated for 30 mins in presence of ATP by Alphascreen assay. A general note: In Alpha technology, singlet oxygen from a donor bead excites a nearby acceptor bead.
In another data set the test system is HUVEC. As to the kind of experiment: Cytotoxicity against HUVEC cells assessed as inhibition of cell growth at 1 uM incubated for 72 hrs by Celltiter-luminescence analysis. Format: toxicity, cell-based. The following applies: human.
Another data set concerns WI-38. As to the kind of experiment: Cytotoxicity against human WI-38 cells assessed as inhibition of cell growth at 1 uM incubated for 72 hrs by Celltiter-luminescence analysis. Format: toxicity, cell-based. Particulars: wi-38, 72 h.
For data set [16], the system named is SUD4. Description: Induction of apoptosis in human SU-DHL-4 cells assessed as late apoptotic cells at 1 uM incubated for 24 hrs by Annexin V-FITC/PI staining based flow cytometric analysis (reference value: 6.74 %). Format: functional. Background: Flow cytometry measures light scatter and fluorescence of single cells or particles in a stream.
In data set [17] the test system is SUD4. Description: Induction of apoptosis in human SU-DHL-4 cells assessed as viable cells at 1 uM incubated for 24 hrs by Annexin V-FITC/PI staining based flow cytometric analysis (reference value: 65.2 %). Format: functional. The following applies: read-out: Activity.
The subject of data set [18] is SUD4. Description: Induction of apoptosis in human SU-DHL-4 cells assessed as early apoptotic cells at 1 uM incubated for 24 hrs by Annexin V-FITC/PI staining based flow cytometric analysis (reference value: 25.3 %). Format: functional.
The subject of data set [19] is SUD4. As to the kind of experiment: Induction of apoptosis in human SU-DHL-4 cells assessed as necrotic cells at 1 uM incubated for 24 hrs by Annexin V-FITC/PI staining based flow cytometric analysis (reference value: 0.642 %). Format: functional.
The subject of data set [20] is SU-DHL-6. As to the kind of experiment: Induction of apoptosis in human SU-DHL-6 cells assessed as viable cells at 1 uM incubated for 24 hrs by Annexin V-FITC/PI staining based flow cytometric analysis (reference value: 61.2 %). Format: functional. Particulars: read-out: Activity.
Data set [21] concerns SU-DHL-6. As to the kind of experiment: Induction of apoptosis in human SU-DHL-6 cells assessed as early apoptotic cells at 1 uM incubated for 24 hrs by Annexin V-FITC/PI staining based flow cytometric analysis (reference value: 32.1 %). Format: functional.
Data set [22] deals with SU-DHL-6. As to the kind of experiment: Induction of apoptosis in human SU-DHL-6 cells assessed as late apoptotic cells at 1 uM incubated for 24 hrs by Annexin V-FITC/PI staining based flow cytometric analysis (reference value: 6.43 %). Format: functional.
In data set [23] the test system is SU-DHL-6. As to the kind of experiment: Induction of apoptosis in human SU-DHL-6 cells assessed as necrotic cells at 1 uM incubated for 24 hrs by Annexin V-FITC/PI staining based flow cytometric analysis (reference value: 0.246 %). Format: functional.
Data set [24] relates to SU-DHL-6. As to the kind of experiment: Antitumor activity against human SU-DHL-6 cells xenografted in female BALB/c mouse model assessed as tumor growth inhibition at 20 mg/kg, po administered once daily via gavage for 15 days relative to control. Particulars: SU-DHL-6, 360 h, time 15 day, read-out: TGI. Format: functional.
Data set [25] is described as follows: Toxicity in female BALB/c mouse model xenografted with human SU-DHL-6 cells assessed as effect on body weight at 20 mg/kg, po administered once daily via gavage for 15 days. Format: organism-based. The following applies: in vivo, 360 h, time 15 day.
A short description of data set [26]: Toxicity in female BALB/c mouse model xenografted with human SU-DHL-6 cells assessed as effect on heart histopathology at 20 mg/kg, po administered once daily via gavage for 15 days by H and E staining based analysis. Format: organism-based. The following applies: in vivo, 360 h, time 15 day.
The nature of data set [27]: Toxicity in female BALB/c mouse model xenografted with human SU-DHL-6 cells assessed as effect on liver histopathology at 20 mg/kg, po administered once daily via gavage for 15 days by H and E staining based analysis. Format: organism-based. The following applies: in vivo, 360 h, time 15 day.
A short description of data set [28]: Toxicity in female BALB/c mouse model xenografted with human SU-DHL-6 cells assessed as effect on spleen histopathology at 20 mg/kg, po administered once daily via gavage for 15 days by H and E staining based analysis. Format: organism-based. The following applies: in vivo, 360 h, time 15 day.
Data set [29] is described as follows: Toxicity in female BALB/c mouse model xenografted with human SU-DHL-6 cells assessed as effect on lung histopathology at 20 mg/kg, po administered once daily via gavage for 15 days by H and E staining based analysis. Format: organism-based. Particulars: in vivo, 360 h, time 15 day.
The nature of data set [30]: Toxicity in female BALB/c mouse model xenografted with human SU-DHL-6 cells assessed as effect on kidney histopathology at 20 mg/kg, po administered once daily via gavage for 15 days by H and E staining based analysis. Format: organism-based. Particulars: in vivo, 360 h, time 15 day.
For data set [31], the system named is SU-DHL-6. Description: Antitumor activity against human SU-DHL-6 cells xenografted in female BALB/c mouse model assessed as downregulation of Ki67 level in tumor at 20 mg/kg, po administered once daily via gavage for 15 days by immunohistochemical staining based analysis. Format: functional, organism-based. Particulars: time 15.0 day.
The subject of data set [32] is SUD4. As to the kind of experiment: Antiproliferative against activity human SU-DHL-4 cells assessed as inhibition of cell growth incubated for 72 hrs in presence of 10:1 compound:ABBV-75 by Celltiter-luminescence analysis. Format: functional, cell-based. The following applies: SU-DHL-4, 72 h.
The test system of data set [33] is SU-DHL-6. As to the kind of experiment: Antiproliferative against activity human SU-DHL-6 cells assessed as inhibition of cell growth incubated for 72 hrs in presence of 10:1 compound:ABBV-75 by Celltiter-luminescence analysis. Format: functional, cell-based. Particulars: SU-DHL-6, 72 h.

PI3-kinase p110-delta/p85-alpha, sequence (P27986 whole entry): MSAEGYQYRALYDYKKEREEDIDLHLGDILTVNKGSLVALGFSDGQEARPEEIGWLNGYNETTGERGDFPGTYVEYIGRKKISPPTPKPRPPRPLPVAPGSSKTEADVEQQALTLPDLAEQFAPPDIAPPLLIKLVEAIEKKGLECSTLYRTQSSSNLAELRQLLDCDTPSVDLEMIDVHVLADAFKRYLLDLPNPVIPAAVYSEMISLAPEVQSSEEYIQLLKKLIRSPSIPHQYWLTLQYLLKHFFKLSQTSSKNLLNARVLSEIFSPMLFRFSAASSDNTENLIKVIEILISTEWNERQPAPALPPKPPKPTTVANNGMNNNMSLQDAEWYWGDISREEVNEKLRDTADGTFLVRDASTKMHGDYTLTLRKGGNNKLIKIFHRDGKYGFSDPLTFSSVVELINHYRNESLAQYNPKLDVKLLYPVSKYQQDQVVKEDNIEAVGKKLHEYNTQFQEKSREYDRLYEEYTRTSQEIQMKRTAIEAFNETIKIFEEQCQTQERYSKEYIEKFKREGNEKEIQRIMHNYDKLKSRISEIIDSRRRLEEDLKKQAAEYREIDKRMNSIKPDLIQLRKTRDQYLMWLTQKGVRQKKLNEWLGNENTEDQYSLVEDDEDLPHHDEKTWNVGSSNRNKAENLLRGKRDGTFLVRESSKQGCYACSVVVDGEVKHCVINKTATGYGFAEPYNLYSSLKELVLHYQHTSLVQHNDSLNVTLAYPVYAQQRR
PI3-kinase p110-delta/p85-alpha, sequence (O00329 whole entry): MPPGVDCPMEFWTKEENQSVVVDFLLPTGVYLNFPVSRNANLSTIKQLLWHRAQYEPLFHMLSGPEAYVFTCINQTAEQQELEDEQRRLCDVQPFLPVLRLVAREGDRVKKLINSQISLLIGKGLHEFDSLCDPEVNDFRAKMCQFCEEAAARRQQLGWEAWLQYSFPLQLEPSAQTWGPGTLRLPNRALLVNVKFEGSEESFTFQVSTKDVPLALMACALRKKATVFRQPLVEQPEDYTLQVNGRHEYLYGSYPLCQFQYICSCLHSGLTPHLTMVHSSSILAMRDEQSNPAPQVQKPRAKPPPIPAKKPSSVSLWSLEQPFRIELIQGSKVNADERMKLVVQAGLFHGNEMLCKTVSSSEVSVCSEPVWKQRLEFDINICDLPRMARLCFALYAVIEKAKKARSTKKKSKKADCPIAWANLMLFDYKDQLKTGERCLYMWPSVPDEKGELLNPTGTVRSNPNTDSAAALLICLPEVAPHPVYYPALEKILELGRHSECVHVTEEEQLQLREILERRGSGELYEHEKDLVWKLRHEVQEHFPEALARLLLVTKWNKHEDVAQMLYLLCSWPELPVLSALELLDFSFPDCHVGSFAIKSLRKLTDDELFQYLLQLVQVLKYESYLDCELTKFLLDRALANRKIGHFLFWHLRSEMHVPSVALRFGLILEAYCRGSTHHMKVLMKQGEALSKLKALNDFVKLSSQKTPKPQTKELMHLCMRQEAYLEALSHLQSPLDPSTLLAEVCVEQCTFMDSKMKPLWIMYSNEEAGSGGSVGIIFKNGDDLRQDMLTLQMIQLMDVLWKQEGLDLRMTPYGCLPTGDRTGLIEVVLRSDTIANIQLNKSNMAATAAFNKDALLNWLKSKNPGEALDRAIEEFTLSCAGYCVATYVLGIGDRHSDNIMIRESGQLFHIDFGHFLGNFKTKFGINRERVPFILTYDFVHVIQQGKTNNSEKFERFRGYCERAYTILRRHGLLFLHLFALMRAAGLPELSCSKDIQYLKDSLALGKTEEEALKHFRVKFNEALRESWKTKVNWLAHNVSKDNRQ
Bromodomain-containing protein 3, sequence (Q15059 whole entry): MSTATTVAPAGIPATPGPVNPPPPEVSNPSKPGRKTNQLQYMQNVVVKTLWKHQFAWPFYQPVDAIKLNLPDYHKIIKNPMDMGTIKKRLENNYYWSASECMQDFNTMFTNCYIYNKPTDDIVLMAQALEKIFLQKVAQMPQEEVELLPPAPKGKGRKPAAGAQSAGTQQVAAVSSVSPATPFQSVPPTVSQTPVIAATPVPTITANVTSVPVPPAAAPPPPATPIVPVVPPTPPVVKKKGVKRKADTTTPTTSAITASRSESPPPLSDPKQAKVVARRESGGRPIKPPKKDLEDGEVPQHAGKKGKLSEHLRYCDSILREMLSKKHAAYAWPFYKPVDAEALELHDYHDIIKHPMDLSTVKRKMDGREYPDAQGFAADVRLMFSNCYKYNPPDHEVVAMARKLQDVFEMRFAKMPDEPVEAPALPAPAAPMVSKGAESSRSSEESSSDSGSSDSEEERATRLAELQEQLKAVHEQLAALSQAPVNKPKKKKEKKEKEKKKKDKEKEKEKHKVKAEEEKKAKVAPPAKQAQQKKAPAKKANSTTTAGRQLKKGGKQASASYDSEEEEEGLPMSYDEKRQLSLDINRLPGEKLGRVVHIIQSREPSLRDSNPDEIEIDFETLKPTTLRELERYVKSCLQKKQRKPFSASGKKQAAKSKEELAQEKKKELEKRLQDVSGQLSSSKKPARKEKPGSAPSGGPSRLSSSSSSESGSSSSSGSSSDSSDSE
Bromodomain-containing protein 2, sequence (P25440 whole entry): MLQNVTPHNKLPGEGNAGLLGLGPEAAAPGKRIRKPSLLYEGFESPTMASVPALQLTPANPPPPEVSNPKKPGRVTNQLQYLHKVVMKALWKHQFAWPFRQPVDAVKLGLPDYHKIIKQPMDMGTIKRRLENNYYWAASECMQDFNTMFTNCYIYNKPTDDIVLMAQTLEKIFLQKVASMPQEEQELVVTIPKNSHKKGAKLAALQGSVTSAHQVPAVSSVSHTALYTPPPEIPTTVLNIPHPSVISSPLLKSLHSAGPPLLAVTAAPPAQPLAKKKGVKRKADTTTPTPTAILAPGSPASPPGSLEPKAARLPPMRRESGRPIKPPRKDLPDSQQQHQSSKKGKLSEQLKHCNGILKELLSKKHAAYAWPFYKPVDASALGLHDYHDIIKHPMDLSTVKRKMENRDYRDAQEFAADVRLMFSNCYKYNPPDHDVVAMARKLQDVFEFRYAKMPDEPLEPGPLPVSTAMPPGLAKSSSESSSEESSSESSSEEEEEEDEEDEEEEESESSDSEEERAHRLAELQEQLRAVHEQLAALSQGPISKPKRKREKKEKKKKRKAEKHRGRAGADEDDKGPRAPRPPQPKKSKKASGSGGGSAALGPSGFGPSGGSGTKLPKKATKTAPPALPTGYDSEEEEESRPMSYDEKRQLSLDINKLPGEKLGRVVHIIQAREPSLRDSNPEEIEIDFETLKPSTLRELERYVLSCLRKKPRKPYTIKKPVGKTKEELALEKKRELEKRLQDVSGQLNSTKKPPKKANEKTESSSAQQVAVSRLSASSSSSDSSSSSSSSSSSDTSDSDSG
Phosphatidylinositol 4,5-bisphosphate 3-kinase catalytic subunit gamma isoform, sequence (P48736 whole entry, canonical isoform): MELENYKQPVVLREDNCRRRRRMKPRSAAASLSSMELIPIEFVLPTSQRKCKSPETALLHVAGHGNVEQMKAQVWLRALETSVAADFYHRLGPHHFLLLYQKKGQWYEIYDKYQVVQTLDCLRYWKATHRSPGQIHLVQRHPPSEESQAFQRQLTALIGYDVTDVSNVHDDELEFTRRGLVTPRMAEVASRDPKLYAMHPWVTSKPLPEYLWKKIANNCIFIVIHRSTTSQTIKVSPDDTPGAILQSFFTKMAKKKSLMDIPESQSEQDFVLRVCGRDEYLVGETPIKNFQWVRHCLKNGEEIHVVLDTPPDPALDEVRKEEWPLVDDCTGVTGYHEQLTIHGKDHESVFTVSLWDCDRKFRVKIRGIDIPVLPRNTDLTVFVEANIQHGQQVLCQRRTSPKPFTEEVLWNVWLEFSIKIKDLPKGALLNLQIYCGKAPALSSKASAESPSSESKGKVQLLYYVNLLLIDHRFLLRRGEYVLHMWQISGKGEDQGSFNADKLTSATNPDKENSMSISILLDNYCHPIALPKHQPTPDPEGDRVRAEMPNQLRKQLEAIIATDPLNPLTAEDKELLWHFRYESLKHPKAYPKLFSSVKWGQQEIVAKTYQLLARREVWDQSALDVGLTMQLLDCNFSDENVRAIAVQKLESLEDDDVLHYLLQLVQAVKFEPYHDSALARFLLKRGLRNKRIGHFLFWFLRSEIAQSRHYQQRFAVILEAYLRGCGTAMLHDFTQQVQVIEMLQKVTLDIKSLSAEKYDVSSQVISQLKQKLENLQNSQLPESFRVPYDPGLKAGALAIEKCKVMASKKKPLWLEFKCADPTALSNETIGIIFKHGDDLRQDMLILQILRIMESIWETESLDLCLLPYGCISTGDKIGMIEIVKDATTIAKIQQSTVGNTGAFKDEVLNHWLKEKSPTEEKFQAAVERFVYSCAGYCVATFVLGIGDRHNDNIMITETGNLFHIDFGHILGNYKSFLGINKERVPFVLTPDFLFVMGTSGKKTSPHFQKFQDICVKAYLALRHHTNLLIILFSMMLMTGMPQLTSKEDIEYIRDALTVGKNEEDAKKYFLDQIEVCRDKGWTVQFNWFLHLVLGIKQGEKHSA

In the case of `Cn1cc(-c2nc(N3CCOCC3)c3sc(CN4CCN(CC5CC5)CC4)cc3n2)c2cc[nH]c2c1=O`, the inhibition in data set [1] is 19.5%; in [2], 58.2%. Further, the IC50 is 464 nM in data set [3], 7.8 nM in data set [4], 220 nM in the data set with SUD4 [5] and 53 nM in the data set on SU-DHL-6 [6].

As for `CCS(=O)(=O)Nc1ccc(Oc2ccc(F)cc2F)c(-c2cn(C)c(=O)c3[nH]ccc23)c1` [MIVEBRESIB], the IC50 in data set [4] worked out at 0.73 nM; in the data set on SUD4 [5], 41 nM; in the data set on SU-DHL-6 [6], 23 nM; with SUD4 [7] it was 14 nM; with SU-DHL-6 [8], 10 nM.

Consider `C[C@H](O)C(=O)N1CCN(Cc2cc3nc(-c4cn(C)c(=O)c5[nH]ccc45)nc(N4CCOCC4)c3s2)CC1`, for which the results for the inhibition in data set [1] and in data set [2] were 33.2% and 39.9%, respectively. For the same molecule, the IC50 in [3] stood at 206 nM; in data set [4], 11 nM.

Take `O=c1cc(N2CCOCC2)oc2c(-c3ccc4c(c3)OCCO4)csc12`: the IC50 in data set [3] stood at 158 nM; in data set [4] it was 312 nM; in the data set with SUD4 [5] it was 1880 nM; in the data set with SU-DHL-6 [6] it was 518 nM; in [9] it was 129 nM; in [10], 251 nM. Also, the IC50 in [11] was 599 nM; in data set [12], 383 nM; in data set [13], 303 nM; in data set [14], 235 nM; in [15] it was 1230 nM. In addition, the Activity result in the data set with HUVEC is on record as “Toxic”; in the data set on WI-38, “Toxic”; in the data set with SUD4 [16], 10.4%; with SUD4 [18], 26.8%; in the data set on SUD4 [19] it was 1.05%; in the data set on SU-DHL-6 [21], 33.6%. Besides, the Activity is reported as 5.53% with SU-DHL-6 [22]; 0.61% in the data set with SU-DHL-6 [23]; “Non-toxic” in data set [25]; “Non-toxic” in data set [26]; “Non-toxic” in data set [27]; “Non-toxic” in [28]. In addition, the Activity result in [29] is on record as “Non-toxic”; in data set [30], “Non-toxic”; in the data set with SU-DHL-6 [31], “Active; More Effective Than Sf2523”. Moreover, the results for the viability at 1 µM in the data set on SUD4 [17] and in the data set with SU-DHL-6 [20] were 61.7% and 60.2%, respectively. In addition, the inhibition in vivo at 20 mg/kg with SU-DHL-6 [24] came out at 62.3%.

With `Cn1cc(-c2nc(N3CCOCC3)c3sc(CN4CCN(CC5CC5)CC4)cc3n2)c2cn[nH]c2c1=O`, the results for the inhibition in [1] and in data set [2] were 43.5% and 12.7%, respectively.

With `C[C@H](N)C(=O)N1CCN(Cc2cc3nc(-c4cn(C)c(=O)c5[nH]ccc45)nc(N4CCOCC4)c3s2)CC1`, the inhibition in data set [1] was determined as 19.5%; in [2], 59.9%.

Consider `Cn1cc(-c2nc(N3CCOCC3)c3sc(CN4CCC(O)CC4)cc3n2)c2cc[nH]c2c1=O`, for which the inhibition in [1] turned out to be 19.4%; in [2], 36%.

In the case of `Cn1cc(-c2nc(N3CCOCC3)c3sc(CN4CCN(CC5CC5)CC4)cc3n2)ccc1=O`, the inhibition in data set [1] turned out to be 25.7%; in data set [2], 32.6%.

For the molecule `Cc1c(-c2nc(N3CCOCC3)c3sc(CN4CCN(CC5CC5)CC4)cc3n2)cn(C)c(=O)c1N`, the inhibition in data set [1] was 6%; in data set [2] it was 1.4%.

Regarding `Cn1cc(-c2nc(N3CCOCC3)c3sc(CN4CCN(CC5CC5)CC4)cc3n2)cc(N)c1=O`, the results for the inhibition in data set [1] and in [2] were 7.7% and 18.1%, respectively.

As to `Fc1ccc2[nH]ccc2c1-c1nc(N2CCOCC2)c2sc(CN3CCN(CC4CC4)CC3)cc2n1`, the IC50 in data set [3] turned out to be 23 nM; with SUD4 [5], 263 nM; in the data set on SU-DHL-6 [6], 1820 nM; in the data set with SUD4 [32], 14 nM; in the data set with SU-DHL-6 [33], 10 nM.

The record behind these values is ChEMBL document CHEMBL6153089, “Design, Synthesis, and Biological Evaluation of Thieno[3,2-d]pyrimidine Derivatives as the First Bifunctional PI3Kδ Isoform Selective/Bromodomain and Extra-Terminal Inhibitors” (J Med Chem, 2025).
